In US8129366B2, “VLA-4 inhibitory drug” (Daiichi Sankyo Company, Limited, priority 2005, dated 2012):

Target: T1, hα4 and β1 integrins (Homo sapiens, UniProt P05556+P13612)
T1 construct: expressed in transfected cells; host or cells: CHO cells
Experiment: In vitro inhibition of binding between CHO cells expressing hα4 and β1 integrins and Eu3+-hVCAM-1 D1D7-IgG
Settings: for Ki: CHO cells expressing hα4 and β1 integrins, Eu3+-hVCAM-1 D1D7-IgG ligand, without HSA; for IC50: in the presence of 3% human serum albumin (HSA final concentration 3%)
Protocol: CHO cells which forcibly expressed hα4 and β1 integrins through transfection thereof, were inoculated into a Costar 3599 plate (3×10^4 cells/100 μl/well), and cultured for two days. The cells in the wells were washed two times with buffer A*, and then Eu^3+-hVCAM-1 D1D7-IgG diluted with assay buffer** to 2 nM was added in an amount of 50 μl/well. The substance under test diluted with 26 DMSO-assay buffer (in the co-presence or absence of 6% human serum albumin) was added in an amount of 50 μl/well (adding separately diluted solution to the wells for performing Scatchard analysis), the contents were stirred for 5 minutes with a plate mixer, and then the plate was left to stand still for one hour at room temperature. The binding inhibitory activity in the presence of human serum albumin (HSA) was examined by diluting the specimen with 26 DMSO-assay buffer containing 6% HSA (SIGMA Corp., c/n A-1653), and adding the resultant (HSA final concentration 3%). After 30 to 60 minutes of the addition of specimen, the plate contents were washed 4 times with buffer A at 4° C., an enhancing reagent (DELFIA SA) was added in an amount of 100 μl/well, and the plate was shaken for 5 minutes using a plate mixer. Subsequently, the fluorescence intensity was measured with a time-resolved fluorometer (DELFIA Wallac). The IC50 of the substance under test (the concentration for 50% inhibition of the binding between CHO cells and Eu^3+-hVCAM-1 D1D7-IgG) was determined from the binding rate obtained from the calculating expression of [(FT−FNS)−(FI−FNS)]/[(FT−FNS)]×100. Here, FT represents the fluorescence intensity of a well not containing the substance under test; FNS represents the fluorescence intensity of a well not containing the substance under test and hVCAM-1 D1D7-IgG; and FI represents the fluorescence intensity of a well containing the substance under test. The Kd value which represents the strength of binding, and Bmax (maximum binding amount) were estimated to be in the range of 0.06 to 20 nM according to the Scatchard analysis method. The evaluation results of the Ki value of the substance under test, and of the IC50 value in the presence of 3% HSA are presented in Tables 2 to 7.
The Ki value was calculated according to the above-described expression. ([L] is the ligand concentration)
[* buffer A: 25 mM HEPES (pH 7.5), 150 mM NaCl, 1 mM Ca^2+, 1 mM Mg^2+, 4 mM Mn2+;
** assay buffer: 25 mM HEPES (pH=7.5), 150 mM NaCl, 1 mM Ca^2+, 1 mM Mg^2+, 4 mM Mn^2+, 0.1% BSA, 20 μM DTPA, with/without 6% ALBUMIN, HUMAN SERUM (C/N A-1653, SIGMA)]

T1 sequence (P13612 34-1032): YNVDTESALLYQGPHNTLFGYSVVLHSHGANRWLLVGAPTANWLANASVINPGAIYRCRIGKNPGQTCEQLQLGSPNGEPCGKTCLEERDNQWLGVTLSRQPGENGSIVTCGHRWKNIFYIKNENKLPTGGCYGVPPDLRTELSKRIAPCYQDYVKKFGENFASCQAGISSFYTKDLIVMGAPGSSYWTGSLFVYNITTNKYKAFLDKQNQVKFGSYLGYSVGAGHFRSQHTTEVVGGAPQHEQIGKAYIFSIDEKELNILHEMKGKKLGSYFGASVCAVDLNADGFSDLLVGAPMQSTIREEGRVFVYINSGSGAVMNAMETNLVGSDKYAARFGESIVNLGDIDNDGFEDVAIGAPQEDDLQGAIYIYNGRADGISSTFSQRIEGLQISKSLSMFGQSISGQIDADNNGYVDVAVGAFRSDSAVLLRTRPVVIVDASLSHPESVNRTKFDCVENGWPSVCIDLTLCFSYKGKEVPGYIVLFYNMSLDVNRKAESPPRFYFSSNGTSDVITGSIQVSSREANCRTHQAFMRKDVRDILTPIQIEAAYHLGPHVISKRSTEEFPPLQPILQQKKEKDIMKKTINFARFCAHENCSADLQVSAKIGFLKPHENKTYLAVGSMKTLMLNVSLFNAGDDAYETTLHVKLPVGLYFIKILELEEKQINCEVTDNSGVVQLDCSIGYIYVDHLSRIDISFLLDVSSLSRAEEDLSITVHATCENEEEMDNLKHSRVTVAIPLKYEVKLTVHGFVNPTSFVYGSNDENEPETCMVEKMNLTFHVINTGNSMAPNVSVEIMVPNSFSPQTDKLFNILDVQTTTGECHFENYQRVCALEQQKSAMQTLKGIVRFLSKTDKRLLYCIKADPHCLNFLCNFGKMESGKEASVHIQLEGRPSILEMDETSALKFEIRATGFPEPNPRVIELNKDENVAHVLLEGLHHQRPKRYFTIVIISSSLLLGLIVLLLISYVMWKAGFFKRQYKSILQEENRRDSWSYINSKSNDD
T1 sequence (P05556 21-798): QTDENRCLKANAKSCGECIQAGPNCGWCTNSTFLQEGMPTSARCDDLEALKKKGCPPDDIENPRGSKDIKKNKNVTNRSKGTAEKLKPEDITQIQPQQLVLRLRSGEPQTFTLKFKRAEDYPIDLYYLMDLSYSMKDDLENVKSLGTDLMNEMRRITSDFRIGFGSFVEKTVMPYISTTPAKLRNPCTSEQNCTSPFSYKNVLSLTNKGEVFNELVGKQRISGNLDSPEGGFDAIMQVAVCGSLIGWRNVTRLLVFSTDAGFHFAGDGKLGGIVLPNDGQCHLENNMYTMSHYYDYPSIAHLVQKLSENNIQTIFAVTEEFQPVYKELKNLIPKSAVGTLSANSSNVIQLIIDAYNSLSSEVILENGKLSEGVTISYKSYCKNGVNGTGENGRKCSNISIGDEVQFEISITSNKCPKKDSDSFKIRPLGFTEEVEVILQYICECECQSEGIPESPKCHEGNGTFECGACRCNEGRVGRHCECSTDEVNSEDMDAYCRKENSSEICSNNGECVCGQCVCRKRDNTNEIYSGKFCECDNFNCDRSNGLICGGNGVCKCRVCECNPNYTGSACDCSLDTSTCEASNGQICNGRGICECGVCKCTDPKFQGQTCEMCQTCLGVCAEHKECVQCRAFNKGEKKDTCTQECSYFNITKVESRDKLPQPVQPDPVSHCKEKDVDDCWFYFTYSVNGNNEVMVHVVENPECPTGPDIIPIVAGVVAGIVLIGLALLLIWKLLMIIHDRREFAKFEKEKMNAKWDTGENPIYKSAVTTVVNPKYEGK

Question: What does the source list for CO[C@H]1CN([C@H]2C[C@@H](CO[C@H]3CC[C@H](C(=O)O)CC3)N(C(=O)Cc3cc(Cl)c(NC(=O)c4cn(C)c5ccccc45)cc3F)C2)C[C@H]1OC [Example 55, Trans-4-[1-[[5-chloro-2-fluoro-4-[(1-methyl-1H-indol-3-ylcarbonyl)amino]phenyl]acetyl]-(4S)-(cis-3,4-dimethoxypyrrolidin-1-yl)-(2S)-pyrrolidinylmethoxy]cyclohexanecarboxylic acid]?
Answer: Ki: 2.6 nM; IC50: 9.2 nM

Question: Which results are given for CO[C@H]1CN([C@H]2C[C@@H](CO[C@H]3CC[C@H](C(=O)O)CC3)N(C(=O)Cc3cc(Cl)c(NC(=O)c4cn(C)c5ccccc45)cc3Cl)C2)C[C@H]1OC [Example 56, Trans-4-[1-[[2,5-dichloro-4-[(1-methyl-1H-indol-3-ylcarbonyl)amino]phenyl]acetyl]-(4S)-(cis-3,4-dimethoxypyrrolidin-1-yl)-(2S)-pyrrolidinylmethoxy]cyclohexanecarboxylic acid]?
Answer: Ki: 2.4 nM; IC50: 9.2 nM

Question: How did the Ki turn out when CO[C@H]1CN([C@H]2C[C@@H](CO[C@H]3CC[C@H](C(=O)O)CC3)N(C(=O)Cc3cc(Cl)c(NC(=O)c4csc5ccccc45)cc3F)C2)C[C@H]1OC [Example 57, Trans-4-[1-[[4-[(benzo[b]thiophen-3-ylcarbonyl)amino]-5-chloro-2-fluorophenyl]acetyl]-(4S)-(cis-3,4-dimethoxypyrrolidin-1-yl)-(2S)-pyrrolidinylmethoxy]cyclohexanecarboxylic acid] was run?
Answer: 1.4 nM

Question: What about the IC50 of the same compound?
Answer: 6.2 nM

Question: Which results are given for CO[C@H]1CN([C@H]2C[C@@H](CO[C@H]3CC[C@H](C(=O)O)CC3)N(C(=O)Cc3cc(Cl)c(NC(=O)c4coc5ccccc45)cc3F)C2)C[C@H]1OC [Example 59, Trans-4-[1-[[4-[(benzo[b]furan-3-ylcarbonyl)amino]-5-chloro-2-fluorophenyl]acetyl]-(4S)-(cis-3,4-dimethoxypyrrolidin-1-yl)-(2S)-pyrrolidinylmethoxy]cyclohexanecarboxylic acid]?
Answer: Ki: 3 nM; IC50: 8.1 nM

Question: What does the source list for CO[C@H]1CN([C@H]2C[C@@H](CO[C@H]3CC[C@H](C(=O)O)CC3)N(C(=O)Cc3ccc(NC(=O)c4nn(C)c5ccccc45)c(Cl)c3)C2)C[C@H]1OC [Example 62, Trans-4-[1-[[4-[(1-methyl-1H-indazol-3-ylcarbonyl)amino]-3-chlorophenyl]acetyl]-(4S)-(cis-3,4-dimethoxypyrrolidin-1-yl)-(2S)-pyrrolidinylmethoxy]cyclohexanecarboxylic acid]?
Answer: Ki: 3.2 nM; IC50: 10 nM

Question: CO[C@@H]1CN([C@H]2C[C@@H](CO[C@H]3CC[C@H](C(=O)O)CC3)N(C(=O)Cc3cc(Cl)c(NC(=O)c4cn(C)c5ccccc45)cc3Cl)C2)C[C@H]1OC [Example 64, Trans-4-[1-[[2,5-dichloro-4-[(1-methyl-1H-indol-3-ylcarbonyl)amino]phenyl]acetyl]-(4S)-[(3R,4R)-dimethoxypyrrolidin-1-yl]-(2S)-pyrrolidinylmethoxy]cyclohexanecarboxylic acid] was tested. Which Ki did it give?
Answer: 5 nM

Question: What about the IC50 of the same compound?
Answer: 33 nM

Question: Which results are given for CO[C@@H]1CN([C@H]2C[C@@H](CO[C@H]3CC[C@H](C(=O)O)CC3)N(C(=O)Cc3cc(Cl)c(NC(=O)c4coc5ccccc45)cc3Cl)C2)C[C@H]1OC [Example 65, Trans-4-[1-[[4-[(benzo[b]furan-3-ylcarbonyl)amino]-2,5-dichlorophenyl]acetyl]-(4S)-[(3R,4R)-dimethoxypyrrolidin-1-yl]-(2S)-pyrrolidinylmethoxy]cyclohexanecarboxylic acid]?
Answer: Ki: 2.9 nM; IC50: 35 nM

Question: Which results are given for O=C(Nc1cc(F)c(CC(=O)N2C[C@@H](n3ccnc3)C[C@H]2CO[C@H]2CC[C@H](C(=O)O)CC2)cc1Cl)c1csc2ccccc12 [Example 67, Trans-4-[1-[[4-[(benzo[b]thiophen-3-ylcarbonyl)amino]-5-chloro-2-fluorophenyl]acetyl]-(4S)-(imidazol-1-yl)-(2S)-pyrrolidinylmethoxy]cyclohexanecarboxylic acid]?
Answer: Ki: 1.2 nM; IC50: 12 nM

Question: What does the source list for O=C(Nc1cc(Cl)c(CC(=O)N2C[C@@H](n3ccnc3)C[C@H]2CO[C@H]2CC[C@H](C(=O)O)CC2)cc1Cl)c1csc2ccccc12 [Example 68, Trans-4-[1-[[4-[(benzo[b]thiophen-3-ylcarbonyl)amino]-2,5-dichlorophenyl]acetyl]-(4S)-(imidazol-1-yl)-(2S)-pyrrolidinylmethoxy]cyclohexanecarboxylic acid]?
Answer: Ki: 2.1 nM; IC50: 30 nM

Question: How did the Ki turn out when Cn1cc(C(=O)Nc2cc(F)c(CC(=O)N3C[C@@H](N4CCCO4)C[C@H]3CO[C@H]3CC[C@H](C(=O)O)CC3)cc2Cl)c2ccccc21 [Example 69, Trans-4-[1-[[5-chloro-2-fluoro-4-[(1-methyl-1H-indol-3-ylcarbonyl)amino]phenyl]acetyl]-(4S)-(isoxazolidin-2-yl)-(2S)-pyrrolidinylmethoxy]cyclohexanecarboxylic acid] was run?
Answer: 6.1 nM

Question: And the IC50?
Answer: 66 nM

Question: Which results are given for O=C(Nc1cc(F)c(CC(=O)N2C[C@@H](N3CCCS3(=O)=O)C[C@H]2CO[C@H]2CC[C@H](C(=O)O)CC2)cc1Cl)c1coc2ccccc12 [Example 70, Trans-4-[1-[[4-[(benzo[b]furan-3-ylcarbonyl)amino]-5-chloro-2-fluorophenyl]acetyl]-(4S)-(1,1-dioxo-1λ^6-isothiazolidin-2-yl)-(2S)-pyrrolidinylmethoxy]cyclohexanecarboxylic acid]?
Answer: Ki: 18 nM; IC50: 62 nM

Question: How did the Ki turn out when O=C(Nc1cc(F)c(CC(=O)N2C[C@@H](N3C[C@H]4C[C@H]4C3)C[C@H]2CO[C@H]2CC[C@H](C(=O)O)CC2)cc1Cl)c1csc2ccccc12 [Example 71, Trans-4-[1-[[4-[(benzo[b]thiophen-3-ylcarbonyl)amino]-5-chloro-2-fluorophenyl]acetyl]-(4S)-[3-azabicyclo[3.1.0]hexan-3-yl]-(2S)-pyrrolidinylmethoxy]cyclohexanecarboxylic acid] was run?
Answer: 7.5 nM

Question: What about the IC50 of the same compound?
Answer: 28 nM

Question: With CC1(C)O[C@H]2CN([C@H]3C[C@@H](CO[C@H]4CC[C@H](C(=O)O)CC4)N(C(=O)Cc4cc(Cl)c(NC(=O)c5csc6ccccc56)cc4Cl)C3)C[C@H]2O1 [Example 75, Trans-4-[1-[[4-[(benzo[b]thiophen-3-ylcarbonyl)amino]-2,5-dichlorophenyl]acetyl]-(4S)-[(3a,6a-cis)-2,2-dimethyltetrahydro[1,3]dioxo[4,5-c]pyrrol-5-yl]-(2S)-pyrrolidinylmethoxy]cyclohexanecarboxylic acid] as the compound, how does the Ki read?
Answer: 0.52 nM

Question: What about the IC50 of the same compound?
Answer: 12 nM

Question: With O=C(Nc1cc(F)c(CC(=O)N2C[C@@H](N3C[C@@H]4CS(=O)(=O)C[C@@H]4C3)C[C@H]2CO[C@H]2CC[C@H](C(=O)O)CC2)cc1Cl)c1coc2ccccc12 [Example 77, Trans-4-[1-[[4-[(benzo[b]furan-3-ylcarbonyl)amino]-5-chloro-2-fluorophenyl]acetyl]-(4S)-[(3a,6a-cis)-hexahydro-2,2-dioxo-2λ^6-thieno[3,4-c]pyrrol-5-yl]-(2S)-pyrrolidinylmethoxy]cyclohexanecarboxylic acid] as the compound, how does the Ki read?
Answer: 2 nM

Question: And the IC50?
Answer: 4.1 nM

Question: For C[C@@H]1CN([C@H]2C[C@@H](CO[C@H]3CC[C@H](C(=O)O)CC3)N(C(=O)Cc3cc(Cl)c(NC(=O)c4csc5ccccc45)cc3F)C2)C[C@H](C)O1 [Example 79, Trans-4-[1-[[4-[(benzo[b]thiophen-3-ylcarbonyl)amino]-5-chloro-2-fluorophenyl]acetyl]-(4S)-(cis-2,6-dimethylmorpholin-4-yl)-(2S)-pyrrolidinylmethoxy]cyclohexanecarboxylic acid], which Ki is on record?
Answer: 0.74 nM

Question: What about the IC50 of the same compound?
Answer: 4.1 nM
